The record followed here is ChEMBL document CHEMBL4613278, “Pyridine Derivative of the Natural Alkaloid Berberine as Human Telomeric G4-DNA Binder: A Solution and Solid-State Study” (ACS Med Chem Lett, 2020).

Format in all cases: nucleic-acid assay
The test system of experiment [1] is Quadruplex DNA. The experiment in a line: Binding affinity to human Tel23 G4 quadruplex DNA assessed as change in enthalpy at 298.15 K by isothermal titration calorimetric analysis.
Experiment [2] deals with Quadruplex DNA. Put plainly: Binding affinity to human Tel12 G4 quadruplex DNA assessed as increase in fluorescence intensity at 1 uM by spectrofluorimetric titration analysis.
The subject of experiment [3] is Quadruplex DNA. Put plainly: Binding affinity to human Tel23 G4 quadruplex DNA assessed as sharp isosbestic point at 350, 375 and 430 nm at 3 uM by spectrophotometric titration analysis.
The subject of experiment [4] is Quadruplex DNA. The experiment in a line: Binding affinity to human Tel12 G4 quadruplex DNA assessed as gibbs free energy change at 298.15 K by isothermal titration calorimetric analysis. (In general: Isothermal titration calorimetry measures the heat released or taken up as one component is titrated into another.)
For experiment [5], the system named is Quadruplex DNA. The experiment in a line: Binding affinity to human Tel12 G4 quadruplex DNA assessed as quadruplex DNA stabilization by measuring increase in melting temperature at compound:quadruplex DNA ratio of 1:1 by thermal melting studies.
Experiment [6] concerns Quadruplex DNA. Put plainly: Binding affinity to human Tel12 G4 quadruplex DNA assessed as decrease in absorption maxima at 338 and 413 nm at 3 uM by spectrophotometric titration analysis.
Experiment [7] has as its system Quadruplex DNA. Put plainly: Binding affinity to human Tel23 G4 quadruplex DNA assessed as quadruplex DNA stabilization by measuring increase in melting temperature at compound:quadruplex DNA ratio of 1:1 by thermal melting studies.
Experiment [8] deals with Quadruplex DNA. Put plainly: Binding affinity to human Tel23 G4 quadruplex DNA assessed as decrease in intensity of positive peaks measured after 5 mins by circular dichroism method.
Experiment [9] has as its system Quadruplex DNA. Put plainly: Binding affinity to human Tel23 G4 quadruplex DNA assessed as increase in fluorescence intensity at 1 uM by spectrofluorimetric titration analysis.
The test system of experiment [10] is Quadruplex DNA. The experiment in a line: Binding affinity to human Tel12 G4 quadruplex DNA assessed as change in enthalpy at 298.15 K by isothermal titration calorimetric analysis.
Experiment [11] concerns Quadruplex DNA. Put plainly: Binding affinity to human Tel12 G4 quadruplex DNA assessed as sharp isosbestic point at 351 and 433 nm at 3 uM by spectrophotometric titration analysis.
For experiment [12], the system named is Quadruplex DNA. Put plainly: Binding affinity to human Tel12 G4 quadruplex DNA assessed as decrease in intensity of positive peaks measured after 5 mins by circular dichroism method. (Circular dichroism is the unequal absorption of left and right circularly polarised light.)
Experiment [13] concerns Quadruplex DNA. Put plainly: Binding affinity to human Tel12 G4 quadruplex DNA at 298.15 K by isothermal titration calorimetric analysis.
The test system of experiment [14] is Quadruplex DNA. The experiment in a line: Binding affinity to human Tel23 G4 quadruplex DNA assessed as gibbs free energy change at 298.15 K by isothermal titration calorimetric analysis.
Experiment [15] has as its system Quadruplex DNA. The experiment in a line: Binding affinity to human Tel23 G4 quadruplex DNA at 298.15 K by isothermal titration calorimetric analysis.
In experiment [16] the test system is Quadruplex DNA. The experiment in a line: Binding affinity to human Tel23 G4 quadruplex DNA assessed as decrease in absorption maxima at 338 and 413 nm at 3 uM by spectrophotometric titration analysis.
Experiment [17] deals with Quadruplex DNA. The experiment in a line: Binding affinity to human Tel12 G4 quadruplex DNA assessed as change in entropy at 298.15 K by isothermal titration calorimetric analysis.
Experiment [18] relates to Quadruplex DNA. Put plainly: Binding affinity to human Tel23 G4 quadruplex DNA assessed as change in entropy at 298.15 K by isothermal titration calorimetric analysis.

Each structure is given as a SMILES string. Active and inactive are the calls of the source. The rule behind the calls is not given here.

Take `COc1ccc2c(CCCc3ccncc3)c3[n+](cc2c1OC)CCc1cc2c(cc1-3)OCO2`: the deltaH in the experiment on Quadruplex DNA [1] was -8.53 kcal/mol; in the experiment with Quadruplex DNA [10] it was -7.08 kcal/mol. The result in the experiment on Quadruplex DNA [2], with Quadruplex DNA [3], in the experiment with Quadruplex DNA [6], with Quadruplex DNA [8], with Quadruplex DNA [9] and in the experiment with Quadruplex DNA [11] was Active. Further, the result with Quadruplex DNA [12] and in the experiment with Quadruplex DNA [16] was Active. For the same compound, the deltaG is -7.38 kcal/mol with Quadruplex DNA [4] and -6.55 kcal/mol with Quadruplex DNA [14]. Further, the deltaTm in the experiment on Quadruplex DNA [5] stood at 15 K; in the experiment on Quadruplex DNA [7] it was 2 K. Also, the K was 3.16 ×10⁵ /M in the experiment with Quadruplex DNA [13] and 8.15 ×10⁴ /M in the experiment on Quadruplex DNA [15]. The TdeltaS is 0.3 kcal/mol in the experiment with Quadruplex DNA [17] and -1.97 kcal/mol with Quadruplex DNA [18].
